# Source: patent publication US7279161B2, “Factor IX/factor IXa activating antibodies and antibody derivatives” (Baxter Aktiengesellschaft, priority 1999, dated 2007)
# “Also recorded” adds a separate entry of the source.
# Experiments:
# factor IXa = target: T1, factor IXa (Bos taurus, UniProt P00741); test: Chromogenic FVIII assay (COATEST VIII:C/4) with the kit's FIXa/FX; format: biochemical, bovine; conditions: bovine FIXa and FX only; A1/3 24 μM
# T1 construct: purchased Chromogenix COATEST VIII:C/4
# T1 sequence (P00741 47-192 limits assumed): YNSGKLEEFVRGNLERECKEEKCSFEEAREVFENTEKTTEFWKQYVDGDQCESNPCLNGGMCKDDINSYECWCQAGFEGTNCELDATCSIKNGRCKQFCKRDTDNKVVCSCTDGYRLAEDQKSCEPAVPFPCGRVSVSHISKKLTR
# T1 sequence (P00741 228-462 limits assumed): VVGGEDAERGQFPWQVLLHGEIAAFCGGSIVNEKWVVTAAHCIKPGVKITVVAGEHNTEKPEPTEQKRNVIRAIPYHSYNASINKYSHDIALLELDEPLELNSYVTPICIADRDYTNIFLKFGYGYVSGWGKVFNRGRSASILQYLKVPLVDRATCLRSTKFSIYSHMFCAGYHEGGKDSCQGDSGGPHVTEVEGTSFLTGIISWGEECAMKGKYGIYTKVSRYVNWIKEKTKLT
# Description: In order to assay the FVIII-like activity of anti-FIXa antibodies secreted by hybridoma cells, the commercially available test-kit COATEST VIII:C/4® (Chromogenix) was employed. The assay was done essentially as described by the manufacturer with the following modifications:
# To allow high throughput screening, the assay was downscaled to microtiter plate format. Briefly, 25 μl aliquots of hybridoma supernatants were transferred to microtiter plate (Costar, #3598) wells and warmed to 37° C. Chromogenic substrate (S-2222), synthetic thrombin inhibitor (I-2581), factor (F) IXa and FX were reconstituted in sterile water and FIXa/FX was mixed with phospholipids according to the supplier's protocol. Per reaction, 50 μl of the phospholipid/FIXa/FX solution were combined with 25 μl CaCl2 (25 mM) and 50 μl of the substrate/inhibitor cocktail. To start the reaction, 125 μl of the premix were added to the hybridoma supernatant in the microtiter plates and incubated at 37° C. Absorbency at 405 nm and 490 nm of the samples was read at various times (30 min to 12 h) against a reagent blank (MLW, cell culture medium instead of hybridoma supernatant) in a Labsystems iEMS Reader MF™ microtiter plate reader. FVIII-like activity of the samples was calculated by comparing the absorbency of the samples against the absorbency of a diluted FVIII reference standard (IMMUNO AG #5T4AR00) using GENESIS™ software.
# Several anti-FIX/FIXa antibody producing hybridoma clones were subcloned up to four times and the resulting monoclonal hybridoma cell line used to produce monoclonal antibody containing supernatant. IgG isotype antibodies derived from these supernatants were purified over affinity columns and dialyzed against TBS (see above). IgM antibodies were used as unpurified supernatant fractions. […] Absorbance at 405 nm and 490 nm of the samples was read at various times (5 min to 6 h) against a reagent blank (cell culture medium instead of hybridoma supernatant) in a Labsystems iEMS Reader MF™ microtiter plate reader using GENESIS™ software. […]
# human FIXa = target: T2, human FIXa (Homo sapiens, UniProt P00740); test: Chromogenic FVIII-like (FXa generation) assay with human FIXa added; format: biochemical
# T2 construct: with (+) and without (−) addition of 50 ng human FIXaβ; purchased ERL (Enzyme Research Laboratories)
# T2 sequence (P00740 47-191 limits assumed): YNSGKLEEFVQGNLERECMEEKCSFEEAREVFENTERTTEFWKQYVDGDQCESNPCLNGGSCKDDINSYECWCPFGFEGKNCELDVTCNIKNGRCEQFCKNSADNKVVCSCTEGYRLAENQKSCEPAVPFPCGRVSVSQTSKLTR
# T2 sequence (P00740 227-461 limits assumed): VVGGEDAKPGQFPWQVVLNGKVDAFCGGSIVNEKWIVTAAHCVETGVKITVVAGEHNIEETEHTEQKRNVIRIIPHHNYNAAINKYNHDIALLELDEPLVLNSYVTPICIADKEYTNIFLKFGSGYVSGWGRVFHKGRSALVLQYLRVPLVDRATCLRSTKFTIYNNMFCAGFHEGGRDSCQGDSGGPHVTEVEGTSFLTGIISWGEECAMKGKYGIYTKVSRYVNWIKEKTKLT
# Outline: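 FXa generation at 37 °C with bovine FIXa/FX plus phospholipids, 25 mM CaCl2 stock, S-2222 substrate and thrombin inhibitor I-2581; 50 ng human FIXa added per reaction. Absorbance at 405 and 490 nm read from 5 min to 2 h against a reagent blank.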
sequence,measurement,setting,value
RRREGGGYYVNWYFDRRR [A1/3],chromogenic FVIII-like activity (FXa generation) without human FIXa,factor IXa,does not react with bovine FIXa and FX; also recorded: does not give rise to any FXa generation
same,chromogenic FVIII-like activity (FXa generation),human FIXa; 2.9 nM human FIXa,readily measurable FXa generation
same,chromogenic activity,"human FIXa; 12 μM peptide, 2.3 nM human FIXa",virtually unchanged
same,chromogenic FVIII-like activity,"human FIXa; 24 μM, with vs without 2.3 nM human FIXa",the reaction takes place only in the presence of human FIXa
